Measurements reported in patent US20110104057A1, “Novel [F-18]-labelled L-glutamic acid and L-glutamine derivatives (II), their use and processes for their preparation” (BAYER SCHERING PHARMA AKTIENGESELLSCHAFT, priority 2008, published 2011).

What was measured:
A549 cells = experiment: competition cell experiment: inhibition of the uptake of 4R/S-[F-18]F-L-glutamic acid (tracer); format: cell-based, human; settings: for % Tracer uptake: A549 cells, 10 min of incubation with 0.250 MBq of 4R/S-[F-18]F-L-Glu in PBS buffer, competitor concentration 1 mM, control = 100.0; for inhibition of tracer uptake: competitor 1 mM, tracer 4R/S-[F-18]F-L-glutamic acid
Procedure: The uptake of the glutamic acid derivatives according to the invention into tumour cells was investigated in cell experiments. Here, the uptake of a radiolabelled glutamic acid derivative (4R/S—[F-18]F-L-glutamic acid) was examined in the presence of the compounds according to the invention (competition experiments). The compounds according to the invention were employed in excess (1 mM) over 4R/S—[F-18]F-L-glutamic acid (tracer).
FIG. 1: graphic representation of the inhibition of the cellular uptake of 4R/S—[F-18]F-L-Glu by compounds according to the invention branched in the 4-position in A549 cells (human non-small-cell bronchial carcinoma) after 10 min of incubation.

[1] = system: rats bearing H460 tumours; experiment: PET imaging in rats bearing H460 tumours; format: in vivo
Procedure: (§1) (2S,4S)-2-Amino-4-(6-[F-18]fluorohexyl)pentanedioic acid was studied in rats bearing H460 tumours using PET imaging and subsequent organ distribution.
(§2) The highest enrichment at 0.52% of the injected dose per g in the tumour was measured at a time of 100 min after injection. […] Thus, in these organs, an uptake of 0.36% ID/g and 0.20% ID/g, respectively, was observed after 100 min. Uptake into the bones was 0.43% ID/g.
60 min after i.v. administration of 15 MBq of (2S,4S)-2-amino-4-(6-[F-18]fluorohexyl)pentanedioic acid to rats bearing H460 tumours, data acquisition with a PET scanner (Inveon) was started for 30 minutes.
FIG. 3. PET study of 60 to 90 min after injection of (2S,4S)-2-amino-4-(6-[F-18]fluorohexyl)pentanedioic acid into mice bearing H460 tumours (analysis of sections)
FIG. 4. PET study of 60 to 90 min after injection of (2S,4S)-2-amino-4-(6-[F-18]fluorohexyl)pentanedioic acid into mice bearing H460 tumours (whole body imaging)

[2] = system: rats bearing H460 tumours; experiment: organ distribution after i.v. administration to animals bearing H460 tumours; format: in vivo; settings: 100 min after i.v. administration of 15 MBq
Procedure: as §1, §2

A460 tumour cells = experiment: cellular uptake of the F-18-labelled compound in tumour cells; format: cell-based, human; settings: for uptake, % of the dose per 100 000 cells: after 30 min of incubation
From the text: Following labelling with F-18, (4S)-4-(6-[F-18]fluorohexyl)-L-Glu was examined in cell experiments with A460 tumour cells (human non-small-cell bronchial carcinoma).

[3] = PET 60-90 min after i.v. administration of 15 MBq

`NC(CC(F)C(=O)O)C(=O)O` (racemic) [4-(R/S)-fluoro-D/L-Glu] was tested, and the “% Tracer uptake” value (A549 cells) was 16.3%.
`N[C@@H](C[C@H](CCCCCC[18F])C(=O)O)C(=O)O` [(2S,4S)-2-Amino-4-(6-[F-18]fluorohexyl)pentanedioic acid] was tested, and the “PET image analysis: enrichment in the remainder of the body” value [1, 3] was “low enrichment”, the “PET image analysis: uptake into the H460 tumour” value [1, 3] was “high uptake” and the “PET study: uptake or excretion in the kidneys or pancreas” value ([1]; PET study) was “transient uptake or excretion”. The “% ID/g Tumour” value ([2]; H460 tumour) was 0.52 % ID/g, the “% ID/g Blood” value ([2]; H460 tumour bearing animals) was 0.04 % ID/g and the “% ID/g Bones” value ([2]; H460 tumour bearing animals) was 0.43 % ID/g. For the same molecule, the “% ID/g Kidney” value ([2]; H460 tumour bearing animals) was 0.36 % ID/g, the “% ID/g Liver” value ([2]; H460 tumour bearing animals) was 0.08 % ID/g and the “% ID/g Muscle” value ([2]; H460 tumour bearing animals) was 0.02 % ID/g. The “% ID/g Pancreas” value ([2]; H460 tumour bearing animals) was 0.20 % ID/g, the “uptake, % of the dose per 100 000 cells” value (A460 tumour cells; listed as 4-(6-[F-18]fluorohexyl)-L-Glu) was 11.2 % of the dose per 100 000 cells and the “uptake, % of the dose per 100 000 cells” value (A460 tumour cells; listed as (4S)-4-(6-[F-18]fluorohexyl)-L-Glu) was 11.2 % of the dose per 100 000 cell. The “time course of cellular uptake” value (A460 tumour cells; tumour cells, F-18-labelled compound) was “time-dependent cellular uptake”.
For `NC(CC(OC1CC(F)C1)C(=O)O)C(=O)O` [(4S)-4-(3-fluorocyclobutoxy)-Glu, 2-Amino-4-(3-fluorocyclobutoxy)pentanedioic acid], the “% Tracer uptake” value (A549 cells) was 5.7% and the “inhibition of tracer uptake” value (A549 cells) was > 90%.
For `N[C@@H](C[C@H](CCCF)C(=O)O)C(=O)O` [(4S)-4-(3-fluoropropyl)-Glu], the “% Tracer uptake” value (A549 cells) was 5.4%.
For `N[C@@H](C[C@H](CCCCCCF)C(=O)O)C(=O)O` [(4S)-4-(6-fluorohexyl)-Glu, (2S,4S)-2-Amino-4-(6-fluorohexyl)pentanedioic acid], the “% Tracer uptake” value (A549 cells) was 6.3% and the “inhibition of tracer uptake” value (A549 cells) was 94%.
With `N[C@@H](C[C@H](O)C(=O)O)C(=O)O` [(4S)-hydroxy-Glu] the “% Tracer uptake” value (A549 cells) was 13.2%.
For `C[C@@H](C[C@H](N)C(=O)O)C(=O)O` [(4S)-methyl-Glu], the “% Tracer uptake” value (A549 cells) was 7.7%.
`N[C@@H](CCC(=O)O)C(=O)O` [L-Glu, L-configured glutamic acid] was tested, and the “% Tracer uptake” value (A549 cells) was 12.6% and the “inhibition of tracer uptake” value (A549 cells) was 87%.
